Experimental data from US20110015068A1, “Herbicidal Compositions Comprising Pyroxasulfone V” (BASF SE, priority 2008, published 2011).

Columns and labels:
Type in all cases: in vivo
Setaria italica [1] = assay: post-emergence greenhouse test, SETIT
From the text: (§1) For the post-emergence treatment, the test plants were first grown to a height of 3 to 20 cm, depending on the plant habit, and only then treated. Here, the herbicidal compositions were suspended or emulsified in water as distribution medium and sprayed using finely distributing nozzles.
(§2) The respective herbicides A and/or safener were formulated as 10% by weight strength suspension concentrate and introduced to the spray liquor with the amount of solvent system used for applying the active compound. Herbicide B and/or safener were used as commercially available formulations and introduced to the spray liquor with the amount of solvent system used for applying the active compound. In the examples, the solvent used was water.
(§3) The test period extended over 21 days. During this time, the plants were tended, and their response to the treatments with active compound was evaluated.
(§4) The evaluation for the damage caused by the chemical compositions was carried out using a scale from 0 to 100%, compared to the untreated control plants. Here, 0 means no damage and 100 means complete destruction of the plants.

Sorghum halepense [2] = assay: pre-emergence greenhouse test, SORHA; conditions: 3.13 g ai/ha
From the text: (§5) For the pre-emergence treatment, directly after sowing the active compounds, which had been suspended or emulsified in water, were applied by means of finely distributed nozzles. The containers were irrigated gently to promote germination and growth and subsequently covered with transparent plastic hoods until plant had rooted. This cover caused uniform germination of the tests plants, unless this was adversely affected by active compounds.
as §2, §3, §4

Solanum nigrum = assay: post-emergence greenhouse test, SOLNI; conditions: 13 g ai/ha
From the text: as §1, §2, §3, §4

Ipomoea purpurea = assay: pre-emergence greenhouse test, PHBPU
From the text: as §5, §2, §3, §4

Galium aparine [3] = assay: post-emergence greenhouse test, GALAP
From the text: as §1, §2, §3, §4

Sorghum halepense [4] = assay: post-emergence greenhouse test, SORHA; conditions: 1.6 g ai/ha
From the text: as §1, §2, §3, §4

Matricaria inermis [5] = assay: pre-emergence greenhouse test, MATIN; conditions: 6.25 g ai/ha
From the text: as §5, §2, §3, §4

Polygonum convolvulus = assay: post-emergence greenhouse test, POLCO
From the text: as §1, §2, §3, §4

Ambrosia artemisifolia = assay: pre-emergence greenhouse test, AMBEL; conditions: 12.5 g ai/ha
From the text: as §5, §2, §3, §4

Alopecurus myosuroides [6] = assay: pre-emergence greenhouse test, ALOMY; conditions: 12.5 g ai/ha
From the text: as §5, §2, §3, §4

Setaria faberii [7] = assay: pre-emergence greenhouse test, SETFA
From the text: as §5, §2, §3, §4

Xanthium strumarium = assay: post-emergence greenhouse test, XANST
From the text: as §1, §2, §3, §4

Alopecurus myosuroides [8] = assay: post-emergence greenhouse test, ALOMY
From the text: as §1, §2, §3, §4

Setaria italica [9] = assay: pre-emergence greenhouse test, SETIT; conditions: 25 g ai/ha
From the text: as §5, §2, §3, §4

Kochia scoparia [10] = assay: post-emergence greenhouse test, KCHSC; conditions: 6.25 g ai/ha
From the text: as §1, §2, §3, §4

Kochia scoparia [11] = assay: pre-emergence greenhouse test, KCHSC; conditions: 12.5 g ai/ha
From the text: as §5, §2, §3, §4

Galium aparine [12] = assay: pre-emergence greenhouse test, GALAP; conditions: 3.13 g ai/ha
From the text: as §5, §2, §3, §4

Setaria lutescens = assay: post-emergence greenhouse test, SETLU; conditions: 1.6 g ai/ha
From the text: as §1, §2, §3, §4

Bromus inermis = assay: pre-emergence greenhouse test, BROIN; conditions: 3.13 g ai/ha
From the text: as §5, §2, §3, §4

Chenopodium album [13] = assay: post-emergence greenhouse test, CHEAL
From the text: as §1, §2, §3, §4

Echinochloa crus-galli = assay: post-emergence greenhouse test, ECHCG
From the text: as §1, §2, §3, §4

Chenopodium album [14] = assay: pre-emergence greenhouse test, CHEAL; conditions: 3.13 g ai/ha
From the text: as §5, §2, §3, §4

Digitaria sanguinalis = assay: post-emergence greenhouse test, DIGSA; conditions: 3.13 g ai/ha, 20 DAT, Table 4
From the text: as §1, §2, §3, §4

Setaria faberii [15] = assay: post-emergence greenhouse test, SETFA; conditions: 12.5 g ai/ha, 20 DAT, Table 4
From the text: as §1, §2, §3, §4

Matricaria inermis [16] = assay: post-emergence greenhouse test, MATIN; conditions: 6.25 g ai/ha, 20 DAT, Table 4
From the text: as §1, §2, §3, §4

Lolium multiflorum = assay: post-emergence greenhouse test, LOLMU; conditions: 12.5 g ai/ha, 20 DAT, Table 4
From the text: as §1, §2, §3, §4

CC(C)N(C)S(=O)(=O)NC(=O)c1cc(-n2c(=O)cc(C(F)(F)F)n(C)c2=O)c(F)cc1Cl [saflufenacil] was tested, and the observed % activity (Setaria italica [1]; 3.1 g ai/ha, 8 DAT) was 30%, the observed % activity (Setaria italica [1]; 3.1 g ai/ha, 20 DAT) was 15% and the observed % activity (Setaria italica [1]; 6.25 g ai/ha, 8 DAT) was 30%. The observed % activity (Setaria italica [1]; 6.25 g ai/ha, 20 DAT) was 20%, the observed % activity (Sorghum halepense [2]; 8 DAT) was 0% and the observed % activity (Sorghum halepense [2]; 20 DAT) was 0%. For the same compound, the observed % activity (Solanum nigrum; 8 DAT) was 85%, the observed % activity (Solanum nigrum; 20 DAT) was 85% and the observed % activity (Ipomoea purpurea; 3.13 g ai/ha, 8 DAT) was 45%. It also gave an observed % activity (Ipomoea purpurea; 3.13 g ai/ha, 20 DAT) of 50%, an observed % activity (Ipomoea purpurea; 6.25 g ai/ha, 8 DAT) of 80% and an observed % activity (Ipomoea purpurea; 6.25 g ai/ha, 20 DAT) of 80%. The observed % activity (Galium aparine [3]; 1.6 g ai/ha, 8 DAT) was 15%, the observed % activity (Galium aparine [3]; 1.6 g ai/ha, 20 DAT) was 20% and the observed % activity (Galium aparine [3]; 3.1 g ai/ha, 8 DAT) was 25%. The observed % activity (Galium aparine [3]; 3.1 g ai/ha, 20 DAT) was 20%, the observed % activity (Galium aparine [3]; 6.25 g ai/ha, 8 DAT) was 35% and the observed % activity (Galium aparine [3]; 6.25 g ai/ha, 20 DAT) was 30%. It also gave an observed % activity (Galium aparine [3]; 13 g ai/ha, 8 DAT) of 80%, an observed % activity (Galium aparine [3]; 13 g ai/ha, 20 DAT) of 70% and an observed % activity (Sorghum halepense [4]; 8 DAT) of 20%. For the same compound, the observed % activity (Sorghum halepense [4]; 20 DAT) was 35%, the observed % activity (Matricaria inermis [5]; 8 DAT) was 95% and the observed % activity (Matricaria inermis [5]; 20 DAT) was 98%. It also gave an observed % activity (Polygonum convolvulus; 1.6 g ai/ha, 8 DAT) of 35%, an observed % activity (Polygonum convolvulus; 1.6 g ai/ha, 20 DAT) of 30% and an observed % activity (Polygonum convolvulus; 13 g ai/ha, 8 DAT) of 95%. For the same compound, the observed % activity (Polygonum convolvulus; 13 g ai/ha, 20 DAT) was 98%, the observed % activity (Ambrosia artemisifolia; 8 DAT) was 70% and the observed % activity (Ambrosia artemisifolia; 20 DAT) was 80%. For the same compound, the observed % activity (Alopecurus myosuroides [6]; 8 DAT) was 30%, the observed % activity (Alopecurus myosuroides [6]; 20 DAT) was 30% and the observed % activity (Setaria faberii [7]; 6.25 g ai/ha, 8 DAT) was 0%. For the same compound, the observed % activity (Setaria faberii [7]; 6.25 g ai/ha, 20 DAT) was 35%, the observed % activity (Setaria faberii [7]; 12.5 g ai/ha, 8 DAT) was 20% and the observed % activity (Setaria faberii [7]; 12.5 g ai/ha, 20 DAT) was 35%. The observed % activity (Xanthium strumarium; 1.6 g ai/ha, 8 DAT) was 35%, the observed % activity (Xanthium strumarium; 1.6 g ai/ha, 20 DAT) was 45% and the observed % activity (Xanthium strumarium; 3.1 g ai/ha, 8 DAT) was 70%. The observed % activity (Xanthium strumarium; 3.1 g ai/ha, 20 DAT) was 75%, the observed % activity (Xanthium strumarium; 6.25 g ai/ha, 8 DAT) was 70% and the observed % activity (Xanthium strumarium; 6.25 g ai/ha, 20 DAT) was 80%. The observed % activity (Alopecurus myosuroides [8]; 1.6 g ai/ha, 8 DAT) was 0%, the observed % activity (Alopecurus myosuroides [8]; 1.6 g ai/ha, 20 DAT) was 0% and the observed % activity (Alopecurus myosuroides [8]; 6.25 g ai/ha, 8 DAT) was 20%. It also gave an observed % activity (Alopecurus myosuroides [8]; 6.25 g ai/ha, 20 DAT) of 0%, an observed % activity (Alopecurus myosuroides [8]; 13 g ai/ha, 8 DAT) of 35% and an observed % activity (Alopecurus myosuroides [8]; 13 g ai/ha, 20 DAT) of 15%. It also gave an observed % activity (Setaria italica [9]; 8 DAT) of 40%, an observed % activity (Setaria italica [9]; 20 DAT) of 55% and an observed % activity (Kochia scoparia [10]; 8 DAT) of 60%. The observed % activity (Kochia scoparia [10]; 20 DAT) was 30%, the observed % activity (Kochia scoparia [11]; 8 DAT) was 75% and the observed % activity (Kochia scoparia [11]; 20 DAT) was 80%. It also gave an observed % activity (Galium aparine [12]; 8 DAT) of 40%, an observed % activity (Galium aparine [12]; 20 DAT) of 40% and an observed % activity (Setaria lutescens; 8 DAT) of 30%. For the same compound, the observed % activity (Setaria lutescens; 20 DAT) was 10%, the observed % activity (Bromus inermis; 8 DAT) was 0% and the observed % activity (Bromus inermis; 20 DAT) was 0%. For the same compound, the observed % activity (Chenopodium album [13]; 6.25 g ai/ha, 8 DAT) was 35%, the observed % activity (Chenopodium album [13]; 6.25 g ai/ha, 20 DAT) was 35% and the observed % activity (Chenopodium album [13]; 13 g ai/ha, 8 DAT) was 45%. For the same compound, the observed % activity (Chenopodium album [13]; 13 g ai/ha, 20 DAT) was 35%, the observed % activity (Echinochloa crus-galli; 1.6 g ai/ha, 8 DAT) was 10% and the observed % activity (Echinochloa crus-galli; 1.6 g ai/ha, 20 DAT) was 0%. For the same compound, the observed % activity (Echinochloa crus-galli; 6.25 g ai/ha, 8 DAT) was 10%, the observed % activity (Echinochloa crus-galli; 6.25 g ai/ha, 20 DAT) was 0% and the observed % activity (Echinochloa crus-galli; 13 g ai/ha, 8 DAT) was 15%. For the same compound, the observed % activity (Echinochloa crus-galli; 13 g ai/ha, 20 DAT) was 0%, the observed % activity (Chenopodium album [14]; 8 DAT) was 75% and the observed % activity (Chenopodium album [14]; 20 DAT) was 60%.

With C#CCN1C(=O)C(F)(F)Oc2cc(F)c(-n3c(=O)n(C)c(=S)n(C)c3=O)cc21 [compound V-1] the “observed activity in % destruction” value (Digitaria sanguinalis) was 35%, the “observed activity in % destruction” value (Galium aparine [3]; 3.13 g ai/ha, 20 DAT, Table 4) was 30% and the “observed activity in % destruction” value (Setaria faberii [15]) was 70%. For the same compound, the “observed activity in % destruction” value (Chenopodium album [13]; 6.25 g ai/ha, 20 DAT, Table 4) was 60%, the “observed activity in % destruction” value (Matricaria inermis [16]) was 90% and the “observed activity in % destruction” value (Lolium multiflorum) was 85%.
